Data on 25 compounds can be found in patent US20250099478A1, “PLASMA KALLIKREIN INHIBITORS” (Merck Sharp & Dohme LLC, priority 2022, published 2025).

SMILES strings stand for the structures.

As a reminder, the IC50 is the midpoint of a concentration-inhibition curve.

This test deals with T1, Human plasma kallikrein (Homo sapiens, UniProt P03952).
T1 construct: yields a heavy chain (371 amino acids) and a light chain (248 amino acids); purchased Enzyme Research Laboratories
T1 sequence (P03952 391-638 limits assumed): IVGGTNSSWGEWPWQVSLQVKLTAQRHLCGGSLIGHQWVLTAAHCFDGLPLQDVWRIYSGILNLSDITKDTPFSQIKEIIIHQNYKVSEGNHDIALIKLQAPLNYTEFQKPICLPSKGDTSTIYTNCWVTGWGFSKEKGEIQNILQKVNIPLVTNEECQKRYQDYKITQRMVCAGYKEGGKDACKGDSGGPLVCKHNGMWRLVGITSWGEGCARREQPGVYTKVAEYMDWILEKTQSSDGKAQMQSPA
T1 sequence (P03952 20-390 partner limits assumed): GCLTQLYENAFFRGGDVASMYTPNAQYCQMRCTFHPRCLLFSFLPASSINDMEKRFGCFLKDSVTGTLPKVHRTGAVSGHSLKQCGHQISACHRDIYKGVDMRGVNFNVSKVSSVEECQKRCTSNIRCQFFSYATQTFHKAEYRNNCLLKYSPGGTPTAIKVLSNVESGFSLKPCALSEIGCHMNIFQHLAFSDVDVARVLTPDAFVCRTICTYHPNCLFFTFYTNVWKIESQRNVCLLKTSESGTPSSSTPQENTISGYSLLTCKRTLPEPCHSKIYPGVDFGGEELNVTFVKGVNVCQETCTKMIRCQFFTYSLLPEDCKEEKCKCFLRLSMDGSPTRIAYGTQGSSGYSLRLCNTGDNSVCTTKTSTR
Briefly: Plasma Kallikrein Assay. Type of test: biochemical. The following applies: purified Human plasma kallikrein 0.5 nM, substrate Acetyl-K-P-R-AFC; read-out: PKal IC50. The procedure: The effectiveness of a compound of the present invention as an inhibitor of plasma kallikrein can be determined using a relevant purified serine protease, and an appropriate synthetic substrate. The rate of hydrolysis of the chromogenic or fluorogenic substrate by the relevant serine protease was measured both in the absence and presence of compounds of the present invention. Assays were conducted at rt or at 37° C. […] A decrease in the rate of fluorescence change in the presence of inhibitor is indicative of enzyme inhibition. Such methods are known to one skilled in the art. The results of this assay are expressed as the half-maximal inhibitory concentrations (IC50), or the inhibitory constant, Ki.
Plasma kallikrein determinations were made in 50 mM HEPES buffer at pH 7.4 containing 150 mM NaCl, 5 mM CaCl2), and 0.1% PEG 8000 (polyethylene glycol; Fisher Scientific). Determinations were made using purified Human plasma kallikrein at a final concentration of 0.5 nM (Enzyme Research Laboratories) and the synthetic substrate, Acetyl-K-P-R-AFC (Sigma #C6608) at a concentration of […].
Times required to achieve equilibration between enzyme and inhibitor were determined in control experiments. […] IC50 was determined by inflection point from a four parameter logistic curve fit. Ki was calculated using the Cheng Prusoff equation, Ki=IC50/(1+([S]/Km)).
Consider `Cc1nc(Cn2cc(C(=O)N3CCC[C@@]4(C3)OC(=O)Nc3ccc(Cl)c(F)c34)cn2)sc1C` [Example 18, (R)-6-Chloro-1′-(1-((4,5-dimethylthiazol-2-yl)methyl)-1H-pyrazole-4-carbonyl)-5-fluorospiro[benzo[d][1,3]oxazine-4,3′-piperidin]-2(1H)-one], for which the IC50 was 50.4 nM.

In the case of `O=C1Nc2ccc(Cl)c(F)c2[C@@]2(CCCN(C(=O)c3nnc(Cc4ccc5c(c4)OCO5)[nH]3)C2)O1` [Example 119, (R)-1′-(5-(Benzo[d][1,3]dioxol-5-ylmethyl)-4H-1,2,4-triazole-3-carbonyl)-6-chloro-5-fluorospiro[benzo[d][1,3]oxazine-4,3′-piperidin]-2(1H)-one], the half-inhibitory concentration (IC50) was 47.1 nM.

With `O=C1Nc2ccc(Cl)c(F)c2[C@@]2(CCCN(C(=O)c3cnn(Cc4ccc(F)c(F)c4)c3)C2)O1` [Example 4, (R)-6-Chloro-1′-(1-(3,4-difluorobenzyl)-1H-pyrazole-4-carbonyl)-5-fluorospiro[benzo[d][1,3]oxazine-4,3′-piperidin]-2(1H)-one], the IC50 amounted to 20 nM.

Take `O=C1Nc2ccc(Cl)c(F)c2[C@]2(CCN(C(=O)c3cnn(Cc4ccc(Cn5ccccc5=O)cc4)c3)C2)O1` [Example 132]: the IC50 was 6.1 nM.

On to `O=C1Nc2ccc(Cl)c(F)c2[C@@]2(CCCN(C(=O)c3cnn(Cc4ccc(F)c(N5CCC5)c4)c3)C2)O1` [Example 8, (R)-1′-(1-(3-(Azetidin-1-yl)-4-fluorobenzyl)-1H-pyrazole-4-carbonyl)-6-chloro-5-fluorospiro[benzo[d][1,3]oxazine-4,3′-piperidin]-2(1H)-one], for which the IC50 was 34.1 nM.

For the compound `CC1(C)COc2cc(Cn3cc(C(=O)N4CCC[C@@]5(C4)OC(=O)Nc4ccc(Cl)c(F)c45)cn3)ccc21` [Example 59, (R)-6-Chloro-1′-(1-((3,3-dimethyl-2,3-dihydrobenzofuran-6-yl)methyl)-1H-pyrazole-4-carbonyl)-5-fluorospiro[benzo[d][1,3]oxazine-4,3′-piperidin]-2(1H)-one], the 50% inhibitory concentration (IC50) turned out to be 22.9 nM.

As to `O=C1Nc2ccc(Cl)c(F)c2[C@]2(CCN(C(=O)c3cn(Cc4ccc(Cn5ccccc5=O)cc4)nc3C(F)(F)F)C2)O1` [Example 135, (S)-6-Chloro-5-fluoro-1′-(1-(4-((2-oxopyridin-1(2H)-yl)methyl)benzyl)-3-(trifluoromethyl)-1H-pyrazole-4-carbonyl)spiro[benzo[d][1,3]oxazine-4,3′-pyrrolidin]-2(1H)-one], the half-maximal inhibitory concentration (IC50) came to 7.5 nM.

`O=C1Nc2ccc(Cl)c(F)c2[C@@]2(CCCN(C(=O)c3cnn(Cc4cccc(C5CC5)c4)c3)C2)O1` [Example 48, (R)-6-Chloro-1′-(1-(3-cyclopropylbenzyl)-1H-pyrazole-4-carbonyl)-5-fluorospiro[benzo[d][1,3]oxazine-4,3′-piperidin]-2(1H)-one]: the IC50 amounted to 32.6 nM.

In the case of `O=C1Nc2ccc(Cl)c(F)c2[C@@]2(CCCN(C(=O)c3cnn(Cc4ccc(F)c(Cl)c4)c3)C2)O1` [Example 6, (R)-6-Chloro-1′-(1-(3-chloro-4-fluorobenzyl)-1H-pyrazole-4-carbonyl)-5-fluorospiro[benzo[d][1,3]oxazine-4,3′-piperidin]-2(1H)-one], the concentration for half-maximal inhibition (IC50) worked out at 8 nM.

Take `O=C1Nc2ccc(Cl)c(F)c2[C@@]2(CCCN(C(=O)c3nnc(Cc4ccccc4F)[nH]3)C2)O1` [Example 114, (R)-6-Chloro-5-fluoro-1′-(5-(2-fluorobenzyl)-4H-1,2,4-triazole-3-carbonyl)spiro[benzo[d][1,3]oxazine-4,3′-piperidin]-2(1H)-one]: the half-maximal inhibitory concentration (IC50) is 33.1 nM.

For `O=C1Nc2ccc(Cl)c(F)c2[C@@]2(CCCN(C(=O)c3cnn(Cc4ccc(-n5cc[nH]c5=O)cc4)c3)C2)O1` [Example 50, (R)-6-Chloro-5-fluoro-1′-(1-(4-(2-oxo-2,3-dihydro-1H-imidazol-1-yl)benzyl)-1H-pyrazole-4-carbonyl)spiro[benzo[d][1,3]oxazine-4,3′-piperidin]-2(1H)-one], the 50% inhibitory concentration (IC50) stood at 13.7 nM.

As for `COc1ccc(Cl)cc1Cn1cc(C(=O)N2CCC[C@@]3(C2)OC(=O)Nc2ccc(Cl)c(F)c23)cn1` [Example 13, (R)-6-Chloro-1′-(1-(5-chloro-2-methoxybenzyl)-1H-pyrazole-4-carbonyl)-5-fluorospiro[benzo[d][1,3]oxazine-4,3′-piperidin]-2(1H)-one], the half-maximal inhibitory concentration (IC50) came to 37.6 nM.

Consider `O=C1Nc2ccc(Cl)c(F)c2[C@@]2(CCCN(C(=O)c3cnn(Cc4ccc5c(c4)CNS5(=O)=O)c3)C2)O1` [Example 64, (R)-6-chloro-1′-(1-((1,1-dioxido-2,3-dihydrobenzo[d]isothiazol-5-yl)methyl)-1H-pyrazole-4-carbonyl)-5-fluorospiro[benzo[d][1,3]oxazine-4,3′-piperidin]-2(1H)-one], for which the IC50 was 24.2 nM.

In the case of `O=C(O)COc1ccc(Cn2cc(C(=O)N3CCC[C@@]4(C3)OC(=O)Nc3ccc(Cl)c(F)c34)cn2)cc1` [Example 52, (R)-2-(4-((4-(6-Chloro-5-fluoro-2-oxo-1,2-dihydrospiro[benzo[d][1,3]oxazine-4,3′-piperidine]-1′-carbonyl)-1H-pyrazol-1-yl)methyl)phenoxy)acetic acid], the IC50 came out at 24.1 nM.

Turning to `O=C1Nc2ccc(Cl)c(F)c2[C@@]2(CCCN(C(=O)c3nnc(Cc4cccc(OC(F)F)c4)[nH]3)C2)O1` [Example 90, (R)-6-Chloro-1′-(5-(3-(difluoromethoxy)benzyl)-4H-1,2,4-triazole-3-carbonyl)-5-fluorospiro[benzo[d][1,3]oxazine-4,3′-piperidin]-2(1H)-one], the IC50 was 33.4 nM.

In the case of `O=C1Nc2ccc(Cl)c(F)c2[C@@]2(CCCN(C(=O)c3nnc(Cc4cccc(Cl)c4)[nH]3)C2)O1` [Example 118, (R)-6-Chloro-1′-(5-(3-chlorobenzyl)-4H-1,2,4-triazole-3-carbonyl)-5-fluorospiro[benzo[d][1,3]oxazine-4,3′-piperidin]-2(1H)-one], the half-maximal inhibitory concentration (IC50) is 29.2 nM.

Take `CC(c1ccccc1)n1cc(C(=O)N2CCC[C@@]3(C2)OC(=O)Nc2ccc(Cl)c(F)c23)cn1` (single isomer, unassigned) [Example 23]: the half-maximal inhibitory concentration (IC50) was 46 nM.

With `O=C1Nc2ccc(Cl)c(F)c2[C@@]2(CCCN(C(=O)c3nc(C(O)c4ccc(F)cc4)n[nH]3)C2)O1` (stereo partly drawn) [Example 127, (4R)-6-Chloro-5-fluoro-1′-(3-((4-fluorophenyl)(hydroxy)methyl)-1H-1,2,4-triazole-5-carbonyl)spiro[benzo[d][1,3]oxazine-4,3′-piperidin]-2(1H)-one], the half-maximal inhibitory concentration (IC50) is 39.9 nM.

For `Nc1noc2ccc(Cn3cc(C(=O)N4CCC[C@@]5(C4)OC(=O)Nc4ccc(Cl)c(F)c45)cn3)cc12` [Example 57, (R)-1′-(1-((3-Aminobenzo[d]isoxazol-5-yl)methyl)-1H-pyrazole-4-carbonyl)-6-chloro-5-fluorospiro[benzo[d][1,3]oxazine-4,3′-piperidin]-2(1H)-one], the IC50 amounted to 29.7 nM.

Regarding `O=C1Nc2ccc(Cl)c(F)c2[C@@]2(CCCN(C(=O)c3nnc(Cc4ccc(CO)c(Cl)c4)[nH]3)C2)O1` [Example 125, (R)-6-Chloro-1′-(5-(3-chloro-4-(hydroxymethyl)benzyl)-4H-1,2,4-triazole-3-carbonyl)-5-fluorospiro[benzo[d][1,3]oxazine-4,3′-piperidin]-2(1H)-one], the IC50 is 20.3 nM.

As to `Cc1cccc(Cc2n[nH]c(C(=O)N3CCC[C@@]4(C3)OC(=O)Nc3ccc(Cl)c(F)c34)n2)c1` [Example 113, (R)-6-Chloro-1′-(3-(3-methylbenzyl)-1H-1,2,4-triazole-5-carbonyl)-5-fluorospiro[benzo[d][1,3]oxazine-4,3′-piperidin]-2(1H)-one], the IC50 came out at 18.3 nM.

For the compound `O=C1Nc2ccc(Cl)c(F)c2[C@@]2(CCCN(C(=O)c3cnn(Cc4cccc(C(F)(F)F)c4)c3)C2)O1` [Example 5, (R)-6-Chloro-5-fluoro-1′-(1-(3-(trifluoromethyl)benzyl)-1H-pyrazole-4-carbonyl)spiro[benzo[d][1,3]oxazine-4,3′-piperidin]-2(1H)-one], the IC50 came out at 23.1 nM.

As to `O=C1Nc2ccc(Cl)c(F)c2[C@@]2(CCCN(C(=O)c3cnn(Cc4cccc(C5CC5)c4)c3)C2)O1` [Example 10, (R)-6-Chloro-1′-(1-(3-cyclopropylbenzyl)-1H-pyrazole-4-carbonyl)-5-fluorospiro[benzo[d][1,3]oxazine-4,3′-piperidin]-2(1H)-one], the IC50 amounted to 26.8 nM.

For the compound `O=C1Nc2ccc(Cl)c(F)c2[C@@]2(CCCN(C(=O)c3nnc(Cc4cc(Cl)c5nc[nH]c5c4)[nH]3)C2)O1` [Example 122, (R)-6-Chloro-1′-(5-((4-chloro-1H-benzo[d]imidazol-6-yl)methyl)-4H-1,2,4-triazole-3-carbonyl)-5-fluorospiro[benzo[d][1,3]oxazine-4,3′-piperidin]-2(1H)-one], the half-maximal inhibitory concentration (IC50) was 17.5 nM.

Take `O=C1Nc2ccc(Cl)c(F)c2[C@@]2(CCCN(C(=O)c3nnc(Cc4cc(F)cc(Cl)c4)[nH]3)C2)O1` [Example 121, (R)-6-Chloro-1′-(5-(3-chloro-5-fluorobenzyl)-4H-1,2,4-triazole-3-carbonyl)-5-fluorospiro[benzo[d][1,3]oxazine-4,3′-piperidin]-2(1H)-one]: the IC50 was determined as 35.4 nM.
